# In ChEMBL document CHEMBL5143691, “Lead optimization of pyrido[2,3-d][1]benzazepin-6-one derivatives leading to the discovery of a potent, selective, and orally available human parathyroid hormone receptor 1 (hPTHR1) antagonist (DS69910557)” (Bioorg Med Chem, 2022):
# Experiments:
# hERG (KCNH2) = hERG (KCNH2) (Homo sapiens, UniProt Q12809); assay: Inhibition of human ERG potassium channel expressed in CHO-K1 cells at 3 uM incubated for 5 mins by patch clamp assay; type: toxicity, cell-based; conditions: CHO-K1 cells expressing human ERG potassium channel
# Sequence of hERG (KCNH2) (Q12809 whole entry): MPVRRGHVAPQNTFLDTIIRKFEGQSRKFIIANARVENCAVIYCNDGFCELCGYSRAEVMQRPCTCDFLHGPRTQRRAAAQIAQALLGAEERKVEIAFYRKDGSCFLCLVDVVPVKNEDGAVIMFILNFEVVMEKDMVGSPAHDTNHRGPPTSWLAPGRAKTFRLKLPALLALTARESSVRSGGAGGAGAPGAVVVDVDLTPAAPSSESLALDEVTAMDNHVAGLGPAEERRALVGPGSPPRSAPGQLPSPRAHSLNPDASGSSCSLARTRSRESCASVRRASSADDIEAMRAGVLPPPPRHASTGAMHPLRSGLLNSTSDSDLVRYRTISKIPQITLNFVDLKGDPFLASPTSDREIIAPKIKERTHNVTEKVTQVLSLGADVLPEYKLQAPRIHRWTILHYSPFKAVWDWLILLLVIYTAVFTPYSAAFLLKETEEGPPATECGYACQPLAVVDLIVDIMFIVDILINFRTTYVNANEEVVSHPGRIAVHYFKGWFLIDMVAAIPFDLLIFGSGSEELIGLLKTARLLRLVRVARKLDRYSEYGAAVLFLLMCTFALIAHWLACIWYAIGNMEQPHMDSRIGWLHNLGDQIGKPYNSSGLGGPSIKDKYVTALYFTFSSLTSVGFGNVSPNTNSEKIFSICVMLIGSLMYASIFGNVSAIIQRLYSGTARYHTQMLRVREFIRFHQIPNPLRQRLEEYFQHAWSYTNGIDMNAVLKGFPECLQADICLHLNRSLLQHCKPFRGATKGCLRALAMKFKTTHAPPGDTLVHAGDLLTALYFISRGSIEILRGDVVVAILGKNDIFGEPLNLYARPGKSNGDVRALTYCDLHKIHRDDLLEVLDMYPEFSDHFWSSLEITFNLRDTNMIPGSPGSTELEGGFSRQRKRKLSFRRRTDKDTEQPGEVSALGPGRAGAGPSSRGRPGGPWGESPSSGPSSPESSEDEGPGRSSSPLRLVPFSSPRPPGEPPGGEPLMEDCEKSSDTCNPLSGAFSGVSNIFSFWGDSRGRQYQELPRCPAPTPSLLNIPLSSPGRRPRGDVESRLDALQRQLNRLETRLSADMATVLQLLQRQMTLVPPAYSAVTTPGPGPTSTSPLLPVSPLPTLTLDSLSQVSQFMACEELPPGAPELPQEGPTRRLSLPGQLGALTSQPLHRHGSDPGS
# [1] = molecular target: T1, Parathyroid hormone/parathyroid hormone-related peptide receptor (Homo sapiens, UniProt Q03431); assay: Antagonist activity against human PTHR1 expressed in CHO-K1 cells assessed as reduction in PTH induced cAMP level incubated for 30 mins in presence of IBMX by cAMP assay
# T1 sequence (Q03431 whole entry): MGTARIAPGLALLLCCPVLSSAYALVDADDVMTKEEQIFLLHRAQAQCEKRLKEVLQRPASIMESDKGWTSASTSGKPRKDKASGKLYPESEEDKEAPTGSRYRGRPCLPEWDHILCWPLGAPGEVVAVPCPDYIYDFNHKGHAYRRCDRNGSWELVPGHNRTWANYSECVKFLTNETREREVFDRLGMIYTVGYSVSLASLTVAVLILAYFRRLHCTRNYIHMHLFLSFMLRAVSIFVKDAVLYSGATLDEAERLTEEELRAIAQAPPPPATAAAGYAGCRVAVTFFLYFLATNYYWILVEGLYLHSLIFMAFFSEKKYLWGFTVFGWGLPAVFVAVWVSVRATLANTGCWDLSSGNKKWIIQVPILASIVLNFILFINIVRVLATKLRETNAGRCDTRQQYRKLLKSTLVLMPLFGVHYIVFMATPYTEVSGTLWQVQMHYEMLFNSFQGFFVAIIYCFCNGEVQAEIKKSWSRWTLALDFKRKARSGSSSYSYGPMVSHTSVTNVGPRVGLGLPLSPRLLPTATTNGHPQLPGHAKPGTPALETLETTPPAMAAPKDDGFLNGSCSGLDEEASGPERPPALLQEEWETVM
# physchem [2] = conditions: JP1 fluid, pH 1.2
# [3] = Metabolic stability in rat liver microsomes assessed as compound remaining at 1 uM incubated for 30 mins in presence of NADPH by LC-MS/MS analysis
# physchem [4] = conditions: JP2 fluid, pH 6.8
# in vivo = conditions: Sprague-Dawley, rat, po, 5 mg/kg
# [5] = AUClast in Sprague-Dawley rat at 5 mg/kg, po by LC-MS/MS analysis; conditions: in vivo
# [6] = Distribution coefficient, log D of compound in 1-octanol and aqueous phosphate buffered saline at pH 7.4 incubated for 30 mins by HPLC-MS analysis; conditions: 1-octanol/phosphate buffered saline
# CYP2D6 = CYP2D6 (Homo sapiens, UniProt P10635); assay: Inhibition of CYP2D6 (unknown origin) at 10 uM relative to control; type: ADME
# Sequence of CYP2D6 (P10635 whole entry): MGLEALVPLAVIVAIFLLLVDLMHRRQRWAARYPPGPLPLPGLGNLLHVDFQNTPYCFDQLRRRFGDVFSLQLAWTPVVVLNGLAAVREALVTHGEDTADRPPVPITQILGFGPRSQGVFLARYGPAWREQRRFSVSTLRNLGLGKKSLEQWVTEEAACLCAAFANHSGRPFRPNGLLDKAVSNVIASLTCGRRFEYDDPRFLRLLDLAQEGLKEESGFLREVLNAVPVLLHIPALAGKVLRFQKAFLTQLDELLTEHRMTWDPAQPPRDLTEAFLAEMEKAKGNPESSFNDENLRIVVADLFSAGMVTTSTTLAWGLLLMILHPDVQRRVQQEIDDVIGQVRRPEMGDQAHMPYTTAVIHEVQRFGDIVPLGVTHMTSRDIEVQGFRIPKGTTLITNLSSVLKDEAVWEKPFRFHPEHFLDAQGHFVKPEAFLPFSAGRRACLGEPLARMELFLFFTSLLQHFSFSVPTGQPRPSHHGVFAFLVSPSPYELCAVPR
# CYP2C19 = CYP2C19 (Homo sapiens, UniProt P33261); assay: Inhibition of CYP2C19 (unknown origin) at 10 uM relative to control; type: ADME
# Sequence of CYP2C19 (P33261 whole entry): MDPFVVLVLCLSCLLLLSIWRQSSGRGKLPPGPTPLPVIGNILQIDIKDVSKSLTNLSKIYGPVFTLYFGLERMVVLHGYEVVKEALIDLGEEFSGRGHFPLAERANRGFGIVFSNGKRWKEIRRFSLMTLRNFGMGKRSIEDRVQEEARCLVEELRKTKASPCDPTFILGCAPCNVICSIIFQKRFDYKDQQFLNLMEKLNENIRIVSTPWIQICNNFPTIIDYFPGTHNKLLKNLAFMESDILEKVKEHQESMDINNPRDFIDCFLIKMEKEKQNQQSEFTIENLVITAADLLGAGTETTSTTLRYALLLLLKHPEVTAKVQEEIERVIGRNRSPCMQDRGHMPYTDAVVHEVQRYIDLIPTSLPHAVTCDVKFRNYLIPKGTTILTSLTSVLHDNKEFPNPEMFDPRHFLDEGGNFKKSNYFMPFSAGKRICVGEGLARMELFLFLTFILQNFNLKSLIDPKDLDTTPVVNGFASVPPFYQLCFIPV
# CYP2C8 = molecular target: T2, CYP2C8 (Homo sapiens, UniProt P10632); assay: Inhibition of CYP2C8 (unknown origin) at 10 uM relative to control; type: ADME
# T2 sequence (P10632 whole entry): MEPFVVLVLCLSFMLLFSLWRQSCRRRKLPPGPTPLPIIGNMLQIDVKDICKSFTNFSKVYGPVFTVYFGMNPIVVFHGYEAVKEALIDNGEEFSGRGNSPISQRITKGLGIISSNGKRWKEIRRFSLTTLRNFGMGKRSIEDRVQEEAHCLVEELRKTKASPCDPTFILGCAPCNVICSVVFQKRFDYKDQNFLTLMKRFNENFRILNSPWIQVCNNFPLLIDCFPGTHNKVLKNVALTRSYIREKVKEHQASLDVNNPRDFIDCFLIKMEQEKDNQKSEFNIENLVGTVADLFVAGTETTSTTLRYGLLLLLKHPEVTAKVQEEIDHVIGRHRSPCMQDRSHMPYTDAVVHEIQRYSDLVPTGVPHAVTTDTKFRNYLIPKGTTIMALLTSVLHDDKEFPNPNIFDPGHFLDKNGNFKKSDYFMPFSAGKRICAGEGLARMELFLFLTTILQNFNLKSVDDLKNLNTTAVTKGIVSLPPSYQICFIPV
# CYP1A2 = molecular target: T3, CYP1A2 (Homo sapiens, UniProt P05177); assay: Inhibition of CYP1A2 (unknown origin) at 10 uM relative to control; type: ADME
# T3 sequence (P05177 whole entry): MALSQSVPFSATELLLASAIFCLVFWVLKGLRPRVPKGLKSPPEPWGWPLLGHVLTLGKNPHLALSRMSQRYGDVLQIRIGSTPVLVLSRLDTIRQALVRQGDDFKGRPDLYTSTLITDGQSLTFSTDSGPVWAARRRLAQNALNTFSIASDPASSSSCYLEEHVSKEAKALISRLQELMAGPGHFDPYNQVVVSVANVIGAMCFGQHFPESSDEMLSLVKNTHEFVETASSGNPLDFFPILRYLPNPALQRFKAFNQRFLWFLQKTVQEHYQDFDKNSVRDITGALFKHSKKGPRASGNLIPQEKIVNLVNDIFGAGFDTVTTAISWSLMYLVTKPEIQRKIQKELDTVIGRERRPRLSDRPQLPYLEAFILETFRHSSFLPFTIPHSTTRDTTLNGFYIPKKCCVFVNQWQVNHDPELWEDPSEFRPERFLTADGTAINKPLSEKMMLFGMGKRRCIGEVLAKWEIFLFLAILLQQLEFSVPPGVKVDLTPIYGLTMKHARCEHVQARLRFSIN
SMILES,"inhibition at 5 min, 3 µM (hERG (KCNH2)) [%]",IC50 [1] [nM],solubility at 4 h (physchem [2]) [µg/mL],"remaining at 0.5 h, 1 µM [3] [%]",solubility at 4 h (physchem [4]) [µg/mL],also measured
COC1(CN[C@H]2CC[C@H](C(=O)O)CC2)CN(c2ccc(N3C(=O)C(C)(C)c4ncc(Cl)cc4-c4ccc(Cl)cc43)cc2)C1,0,,,,,
CC1(C)C(=O)N(c2ccc(N3CC(O)(CNC4CCOCC4)C3)cc2)c2cc(Cl)ccc2-c2cc(Cl)cnc21,,840,940,82,88,
CC1(C)C(=O)N(c2ccc(N3CC(F)(CNC45CCC(C(=O)O)(CC4)CC5)C3)cc2)c2cc(Cl)ccc2-c2cc(Cl)cnc21,,90,,97,,Cmax (in vivo): 900 ng/mL; AUC(0-t) [5]: 11900 ng·h/mL; logD at 0.5 h [6]: 2.8
COC(=O)C1(CNC2CCOCC2)CN(c2ccc(N3C(=O)C(C)(C)c4ncc(Cl)cc4-c4ccc(Cl)cc43)cc2)C1,,110,160,23,0.7,
CC1(C)C(=O)N(c2ccc(N3CC(CNC4CCOCC4)(C(=O)O)C3)cc2)c2cc(Cl)ccc2-c2cc(Cl)cnc21,,23000,100,93,97,
COC1(CN(C)C2CCOCC2)CN(c2ccc(N3C(=O)C(C)(C)c4ncc(Cl)cc4-c4ccc(Cl)cc43)cc2)C1,,780,530,23,2.5,
CC1(C)C(=O)N(c2ccc(N3CC(F)(CN[C@H]4CC[C@H](C(=O)O)CC4)C3)cc2)c2cc(Cl)ccc2-c2cc(Cl)cnc21,2,,,,,inhibition at 10 µM (CYP2D6): < 50%; inhibition at 10 µM (CYP2C19): < 50%; inhibition at 10 µM (CYP2C8): < 50%; inhibition at 10 µM (CYP1A2): < 50%
CC1(C)C(=O)N(c2ccc(N3CC(CN[C@H]4CC[C@H](C(=O)O)CC4)C3)cc2)c2cc(Cl)ccc2-c2cc(Cl)cnc21,0,,,,,
